Data as given in patent publication US10238670B2, “9-aminomethyl minocycline compounds and methods of use thereof in urinary tract infection (UTI) treatment” (Paratek Pharmaceuticals, Inc., priority 2016, dated 2019).
In brackets after ≈: the same amount, converted by molar mass.

What was measured:
Experiment in all cases: In vitro MIC, 2010 surveillance isolates
[1] = test system: E. coli ESBL−; format: cell-based, Escherichia coli
[2] = test system: E. coli ESBL+; format: cell-based, Escherichia coli
[3] = test system: K. pneumoniae ESBL−; format: cell-based, Klebsiella pneumoniae
[4] = test system: K. pneumoniae ESBL+; format: cell-based, Klebsiella pneumoniae
[5] = test system: K. oxytoca; format: cell-based
[6] = test system: E. cloacae CeftazS; format: cell-based; design: MIC90: unit: µg/mL
[7] = test system: E. cloacae CeftazR; format: cell-based
[8] = test system: Enterobacter spp; format: cell-based
[9] = test system: A. baumanii; format: cell-based
[10] = test system: Acinetobacter spp; format: cell-based

Compound: C[C@@H](O)[C@H]1C(=O)N2C(C(=O)O)=C(SCCN=CN)C[C@H]12 [Imipenem]
- % R (resistance) ([1]; Asia/Pac, Eucast breakpoints): 0%
- MIC90 ([1]; Asia/Pac, N=282): ≤ 0.12 µg/mL
- % R (resistance) ([1]; Europe, Eucast breakpoints): 0%
- MIC90 ([1]; Europe, N=1533): ≤ 0.12 µg/mL
- % R (resistance) ([1]; L. Amer, CLSI breakpoints): 0%
- MIC90 ([1]; L. Amer, N=389): ≤ 0.12 µg/mL
- % R (resistance) ([1]; N America, CLSI breakpoints): 0%
- MIC90 ([1]; N America, N=1172): ≤ 0.12 µg/mL
- % R (resistance) ([2]; Asia/Pac, Eucast breakpoints): 0.5%
- MIC90 ([2]; Asia/Pac, N=219): 0.25 µg/mL (≈ 0.835 µM)
- % R (resistance) ([2]; Europe, Eucast breakpoints): 0%
- MIC90 ([2]; Europe, N=274): 0.25 µg/mL (≈ 0.835 µM)
- % R (resistance) ([2]; L. Amer, CLSI breakpoints): 0.6%
- MIC90 ([2]; L. Amer, N=168): 0.25 µg/mL (≈ 0.835 µM)
- % R (resistance) ([2]; N America, CLSI breakpoints): 0%
- MIC90 ([2]; N America, N=134): 0.25 µg/mL (≈ 0.835 µM)
- % R (resistance) ([3]; Asia/Pac, Eucast breakpoints): 0%
- MIC90 ([3]; Asia/Pac, N=189): 0.5 µg/mL (≈ 1.67 µM)
- % R (resistance) ([3]; Europe, Eucast breakpoints): 0%
- MIC90 ([3]; Europe, N=361): 0.25 µg/mL (≈ 0.835 µM)
- % R (resistance) ([3]; L. Amer, CLSI breakpoints): 0%
- MIC90 ([3]; L. Amer, N=160): 0.25 µg/mL (≈ 0.835 µM)
- % R (resistance) ([3]; N America, CLSI breakpoints): 0%
- MIC90 ([3]; N America, N=671): 0.25 µg/mL (≈ 0.835 µM)
- % R (resistance) ([4]; Asia/Pac, Eucast breakpoints): 10.5%
- MIC90 ([4]; Asia/Pac, N=124): > 8 µg/mL
- % R (resistance) ([4]; Europe, Eucast breakpoints): 7.9%
- MIC90 ([4]; Europe, N=151): 2 µg/mL (≈ 6.68 µM)
- % R (resistance) ([4]; L. Amer, CLSI breakpoints): 18.7%
- MIC90 ([4]; L. Amer, N=209): > 8 µg/mL
- % R (resistance) ([4]; N America, CLSI breakpoints): 26.9%
- MIC90 ([4]; N America, N=108): > 8 µg/mL
- % R (resistance) ([5]; Asia/Pac, Eucast breakpoints): 0%
- MIC90 ([5]; Asia/Pac, N=17): 0.5 µg/mL (≈ 1.67 µM)
- % R (resistance) ([5]; Europe, Eucast breakpoints): 0%
- MIC90 ([5]; Europe, N=158): 0.25 µg/mL (≈ 0.835 µM)
- % R (resistance) ([5]; L. Amer, CLSI breakpoints): 4%
- MIC90 ([5]; L. Amer, N=25): 0.25 µg/mL (≈ 0.835 µM)
- % R (resistance) ([5]; N America, CLSI breakpoints): 0.6%
- MIC90 ([5]; N America, N=177): 0.25 µg/mL (≈ 0.835 µM)
- MIC90 ([6]; Asia/Pac, N=100): 1 (1)
- % R (resistance) ([6]; Europe, Eucast breakpoints): 0%
- MIC90 ([6]; Europe, N=183): 0.5 µg/mL (≈ 1.67 µM)
- % R (resistance) ([6]; L. Amer, CLSI breakpoints): 0%
- MIC90 ([6]; L. Amer, N=57): 0.5 µg/mL (≈ 1.67 µM)
- % R (resistance) ([6]; N America, CLSI breakpoints): 0%
- MIC90 ([6]; N America, N=210): 0.5 µg/mL (≈ 1.67 µM)
- % R (resistance) ([7]; Asia/Pac, Eucast breakpoints): 0%
- MIC90 ([7]; Asia/Pac, N=63): 1 µg/mL (≈ 3.34 µM)
- % R (resistance) ([7]; Europe, Eucast breakpoints): 1.4%
- MIC90 ([7]; Europe, N=72): 1 µg/mL (≈ 3.34 µM)
- % R (resistance) ([7]; L. Amer, CLSI breakpoints): 0%
- MIC90 ([7]; L. Amer, N=42): 0.5 µg/mL (≈ 1.67 µM)
- % R (resistance) ([7]; N America, CLSI breakpoints): 11.7%
- MIC90 ([7]; N America, N=77): 8 µg/mL (≈ 26.7 µM)
- % R (resistance) ([8]; Asia/Pac, Eucast breakpoints): 0%
- MIC90 ([8]; Asia/Pac, N=52): 1 µg/mL (≈ 3.34 µM)
- % R (resistance) ([8]; Europe, Eucast breakpoints): 0%
- MIC90 ([8]; Europe, N=82): 1 µg/mL (≈ 3.34 µM)
- % R (resistance) ([8]; L. Amer, CLSI breakpoints): 0%
- MIC90 ([8]; L. Amer, N=42): 1 µg/mL (≈ 3.34 µM)
- % R (resistance) ([8]; N America, CLSI breakpoints): 1 (1) %
- MIC90 ([8]; N America, N=101): 1 (1)
- % R (resistance) ([9]; Asia/Pac, Eucast breakpoints): 72.4%
- MIC90 ([9]; Asia/Pac, N=275): > 8 µg/mL
- % R (resistance) ([9]; Europe, Eucast breakpoints): 66.2%
- MIC90 ([9]; Europe, N=145): > 8 µg/mL
- % R (resistance) ([9]; L. Amer, CLSI breakpoints): 75.6%
- MIC90 ([9]; L. Amer, N=275): > 8 µg/mL
- % R (resistance) ([9]; N America, CLSI breakpoints): 53.2%
- MIC90 ([9]; N America, N=154): > 8 µg/mL
- % R (resistance) ([10]; Asia/Pac, Eucast breakpoints): 11.1%
- % R (resistance) ([10]; Europe, Eucast breakpoints): 30.2%
- MIC90 ([10]; Europe, N=43): > 8 µg/mL
- % R (resistance) ([10]; L. Amer, CLSI breakpoints): 44.4%
- % R (resistance) ([10]; N America, CLSI breakpoints): 4.8%
- MIC90 ([10]; N America, N=42): 8 µg/mL (≈ 26.7 µM)
